Results published in patent publication US5068253A, “Treatment of a microbial infection with drugs containing para-acetamidobenzoic acid” (priority 1990, dated 1991).
Where “and” joins values, the source holds several entries; their conditions need not be identical. Equal values may be shown once. Where a name gives a salt, the structure may show the parent alone.

Experiments:
[1] = system: P. carinii; experiment: Drug inhibition assay: [3H]PABA incorporation into reduced folates by P. carinii organisms; format: cell-based, Pneumocystis carinii; conditions: for activity at 10000 µM: drug 1 × 10^-2 M, 0 = total inhibition
Description: The following assay, used previously to assess drug activity against P. carinii or T. gondii [Kovacs et al., J. Infectious Diseases 160:312-320 (1989)], was used to test drugs for their ability to adversely affect the metabolism of pneumocystis and toxoplasma.
An animal model of Pneumocystis carinii pneumonia was used to obtain organisms. This model involves treating rats, usually Sprague-Dawley rats, with a corticosteroid, in the present case dexamethasone (1-2 mg/L of drinking water) for 6-10 weeks. Tetracycline is included in the water (1 mg/mL) to prevent bacterial superinfection. Such immunosuppressed rats will develop P. carinii pneumonia spontaneously, and P. carinii organisms are obtained by removing the lungs in a sterile manner, cutting up the lungs and disrupting them with a Stomacher (Tekmar), which makes a suspension of organisms and cells. The P. carinii organisms are then partially purified by Ficoll-Hypaque density gradient centrifugation, washed in phosphate buffered saline (PBS), and used in the following experiment.
For drug inhibition studies, organisms are incubated with drugs at varying concentrations for 2-h in paraaminobenzoic acid-free (PABA-free) and folate-free RPMI before pulsing with [^3 H]PABA.
Organisms are harvested after an 18-24 h pulse and washed twice in phosphate buffered saline (PBS). Folates are extracted as previously described [Allegra et al., J. Biol. Chem. 261:6478-6485 (1986)]. The organism pellet is heated at 100° C. for 1 min in 2% sodium ascorbate, pH 6.0, and 2% 2-mercaptoethanol; after centrifugation, the supernatant is treated with partially purified porcine kidney conjugase for 30 min at 37° C. to convert all folates to monoglutamates. After an additional boiling with sodium ascorbate and 2-mercaptoethanol, the folates are extracted into methanol using a C-18 cartridge (Sep-Pak, Waters Chromatography Division, Milford, Mass.) and concentrated under a stream of nitrogen.
The individual folates are resolved by high-performance liquid chromatography (HPLC) using a C8 μBondapak column (Waters Chromatography) under isocratic conditions; the running buffer is 15% ethanol and 85% Pic A (Waters Chromatography), pH 5.5 Radioactivity is determined by an in-line scintillation counter (Flow 1 Beta, model CR, Radiomatic Instruments, Tampa, Fla.). Unlabeled folates are included in each run as internal controls.
Results are presented as the percentage of total radiolabel incorporated into reduced folates compared with untreated controls.

[2] = molecular target: T1, Dihydropteroate synthase (DHPS) (Pneumocystis carinii, UniProt P29251); experiment: Catalytic DHPS assay, crude enzyme preparation from P. carinii; format: biochemical; conditions: for inhibition at 1000 µM / inhibition at 100 µM / inhibition at 10 µM / Percent DHPS Inhibition: P. carinii, single runs; for inhibition at 1000 µM / inhibition at 100 µM / inhibition at 10 µM: read-out: Percent DHPS Inhibition
T1 construct: Enzyme preparations were made by resuspending P. carinii or T. gondii organisms in 1 ml PBS, sonicating to disrupt the organisms; endogenous in cells; host or cells: P. carinii organisms partially purified from lungs of dexamethasone-treated rats; supernatant of sonicate used as crude enzyme
T1 sequence (P29251 1-740): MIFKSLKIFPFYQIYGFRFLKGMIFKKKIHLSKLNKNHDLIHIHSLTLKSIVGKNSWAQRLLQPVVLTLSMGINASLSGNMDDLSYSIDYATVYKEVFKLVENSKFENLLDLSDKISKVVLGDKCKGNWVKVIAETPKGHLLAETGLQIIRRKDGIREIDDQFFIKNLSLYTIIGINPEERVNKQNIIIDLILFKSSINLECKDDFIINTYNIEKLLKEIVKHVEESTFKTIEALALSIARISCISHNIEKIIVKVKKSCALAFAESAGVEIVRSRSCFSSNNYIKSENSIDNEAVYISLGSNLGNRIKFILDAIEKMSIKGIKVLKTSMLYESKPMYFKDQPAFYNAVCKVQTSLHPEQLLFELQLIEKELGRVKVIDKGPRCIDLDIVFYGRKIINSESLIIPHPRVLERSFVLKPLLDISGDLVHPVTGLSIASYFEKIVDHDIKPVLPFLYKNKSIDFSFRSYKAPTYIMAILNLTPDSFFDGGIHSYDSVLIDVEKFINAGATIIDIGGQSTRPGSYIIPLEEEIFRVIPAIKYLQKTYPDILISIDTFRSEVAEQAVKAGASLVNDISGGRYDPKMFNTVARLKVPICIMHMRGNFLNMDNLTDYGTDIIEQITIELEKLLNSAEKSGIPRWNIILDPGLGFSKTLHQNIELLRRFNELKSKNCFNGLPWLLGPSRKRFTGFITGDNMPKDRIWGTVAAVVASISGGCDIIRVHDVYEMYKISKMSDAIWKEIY
Description: (§1) Dihydropteroate synthase (DHPS) is an enzyme of the de novo folate synthesis pathway which is known to be susceptible to sulfonamides. […] has a structural similarity to PABA (paraamino benzoic acid), one of the substrates of DHPS. To determine whether DHPS is the target for PAcBA, a catalytic DHPS assay as previously described [Allegra et al., J. Clin. Invest. 85:371-379 (1990)] was used.
(§2) Briefly, assay tubes contain 5 mM MgCl2, 5 mM DTT, 10 μM H2 PtCH2 OPP, 1 μM [^3 H]pABA (final sp act, 2 Ci/mmol), and 40 mM Tris/HCl, pH 8.3, in a total reaction volume of 100 μl. Various concentrations of inhibitors are added as needed. Enzyme preparations were made by resuspending P. carinii or T. gondii organisms in 1 ml PBS, sonicating to disrupt the organisms, and pelleting the cellular debris. The supernatant was saved and used as the crude enzyme preparation. Reactions are initiated by the addition of 50 μl of enzyme preparation. After a 30-min incubation at 37° C. the reaction tubes are placed on ice to terminate the reactions, and then spotted onto 3×30-cm strips of 3 MM chromatography paper (Whatman Laboratory Products Inc.). The strips are developed in a descending chromatography tank using an elution buffer of 0.1M KH2 PO4, pH 7.0. The origins containing the labeled products of the reaction are cut from the strips, placed in scintillation vials, and counted in a liquid scintillation counter (Packard Tri-Carb; Packard Instrument Co. Inc., Downers Grove, Ill.) 24 h after the addition of 9.5 ml of counting cocktail (3A70b; Research Products International Corp., Mt. Prospect, Ill.).
(§3) The results of the DHPS inhibition assay carried out on P. carinii (PC) and T. gondii (Toxo) using the indicated composition are shown below in Table II.

[3] = molecular target: T2, Dihydropteroate synthase (DHPS) (Toxoplasma gondii, UniProt A0A7J6K300); experiment: Catalytic DHPS assay, crude enzyme preparation from T. gondii; format: biochemical
T2 construct: crude supernatant of sonicated T. gondii RH organisms from mouse peritoneum; bifunctional HPPK-DHPS polypeptide
T2 sequence (A0A7J6K300 1-748): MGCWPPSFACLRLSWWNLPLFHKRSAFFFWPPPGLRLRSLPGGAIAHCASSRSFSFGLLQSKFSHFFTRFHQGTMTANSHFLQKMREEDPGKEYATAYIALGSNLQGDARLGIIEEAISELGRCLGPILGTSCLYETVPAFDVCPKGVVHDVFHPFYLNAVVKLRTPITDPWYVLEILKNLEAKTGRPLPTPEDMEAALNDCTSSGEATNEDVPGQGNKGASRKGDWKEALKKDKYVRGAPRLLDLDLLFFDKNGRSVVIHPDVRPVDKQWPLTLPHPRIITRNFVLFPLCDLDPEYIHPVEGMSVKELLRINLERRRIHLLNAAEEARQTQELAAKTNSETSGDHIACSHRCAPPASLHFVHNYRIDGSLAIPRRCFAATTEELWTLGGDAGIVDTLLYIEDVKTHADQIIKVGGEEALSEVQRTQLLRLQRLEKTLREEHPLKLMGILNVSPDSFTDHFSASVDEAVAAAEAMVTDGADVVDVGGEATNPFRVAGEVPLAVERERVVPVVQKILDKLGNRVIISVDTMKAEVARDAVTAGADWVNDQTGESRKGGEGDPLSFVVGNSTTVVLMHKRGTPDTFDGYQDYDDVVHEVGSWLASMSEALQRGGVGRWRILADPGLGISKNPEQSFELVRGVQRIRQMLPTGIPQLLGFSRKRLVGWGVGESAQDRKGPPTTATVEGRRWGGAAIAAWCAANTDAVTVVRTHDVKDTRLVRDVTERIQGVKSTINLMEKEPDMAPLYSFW
From the text: The RH strain of Toxoplasma gondii were used in all experiments. Organisms are passed by intraperitoneal inoculation into Balb/c mice every 3 to 4 days. Organisms were harvested by lavaging the peritoneum of infected animals 3 to 4 days after inoculation. Organisms were resuspended in PBS, cells are removed by differential centrifugation, and organisms were then pelleted and utilized in the studies.
as §1, §2, §3

[4] = drug 1 × 10^-4 M, single test runs, 100 = no inhibition, 100 µM
[5] = drug 1 × 10^-5 M, single test runs, 100 = no inhibition, 10 µM
[6] = T. gondii, 1 × 10^-4 M, single runs, read-out: Percent DHPS Inhibition
[7] = T. gondii, 1 × 10^-5 M, single runs, read-out: Percent DHPS Inhibition
[8] = Pneumocystis carinii, single test runs, 100 = no inhibition, read-out: Results: % of Control (total radiolabel incorporated into reduced folates)
[9] = Pneumocystis carinii, drug 1 × 10^-4 M, single test runs, 100 = no inhibition, read-out: Results: % of Control (total radiolabel incorporated into reduced folates)
[10] = concentration of each value not resolvable: run has fewer values than the concentrations listed for the drug (1 × 10-2 to 1 × 10^-6 M; PAcBA also 3 × 10^-3 M), values of a run in order of falling concentration

`CC(O)CN(C)C` (stereo not drawn) [1-dimethylamino-2-propanol, reference compound] was tested, and the “Results: % of Control (total radiolabel incorporated into reduced folates)” value [1, 4] was 100 % of Control and 71.3 % of Control, the “Results: % of Control (total radiolabel incorporated into reduced folates)” value [1, 5] was 95 % of Control and 65.4 % of Control and the inhibition at 1000 µM ([2]; 1 × 10^-3 M) was 81.7%. It also gave an inhibition at 100 µM ([2]; 1 × 10^-4 M) of 91.6%, an inhibition at 10 µM ([2]; 1 × 10^-5 M) of 100% and an inhibition at 100 µM [3, 6] of 93.6%. For the same compound, the inhibition at 10 µM [3, 7] was 100%.

`OC[C@H]1O[C@@H](n2cnc3c(O)ncnc32)[C@H](O)[C@@H]1O` [Inosine, inosine, reference compound] gave an activity at 10000 µM [1, 8] of 57.5%, an activity at 1000 µM ([1]; Pneumocystis carinii, drug 1 × 10^-3 M, single test runs, 100 = no inhibition, read-out: Results: % of Control (total radiolabel incorporated into reduced folates)) of 100% and an activity at 100 µM [1, 9] of 69.8%. The “Results: % of Control (total radiolabel incorporated into reduced folates)” value [1, 10] was 61.9 % of Control and 57.6 % of Control and 100 % of Control, the inhibition at 1000 µM ([2]; 1 × 10^-3 M) was 100% and the inhibition at 100 µM ([2]; 1 × 10^-4 M) was 100%. For the same compound, the inhibition at 10 µM ([2]; 1 × 10^-5 M) was 100%.

For `CC(=O)Nc1ccc(C(=O)O)cc1` [PAcBA as 1-dimethylamino-2-propanol salt, PAcBA salt of 1-dimethylamino-2-propanol], the activity at 10000 µM [1, 8] was 0%, the activity at 100 µM [1, 9] was 19% and the “Results: % of Control (total radiolabel incorporated into reduced folates)” value ([1]; drug 1 × 10^-3 M, single test runs, 100 = no inhibition, 1000 µM) was 0 % of Control. For the same compound, the “Results: % of Control (total radiolabel incorporated into reduced folates)” value [1, 4] was 15 % of Control and 20 % of Control, the “Results: % of Control (total radiolabel incorporated into reduced folates)” value [1, 5] was 82 % of Control and 44 % of Control and 43 % of Control and the “Results: % of Control (total radiolabel incorporated into reduced folates)” value ([1]; drug 1 × 10^-6 M, single test runs, 100 = no inhibition, 1 µM) was 100 % of Control and 67 % of Control and 74 % of Control. The “Potency of the salt relative to the free acid PAcBA against P. carinii” value ([1]; salt versus free acid) was “approximately 10 fold”.

With `CC(=O)Nc1ccc(C(=O)O)cc1` [PAcBA, p-acetamidobenzoic acid] the “Inhibition of P. carinii (in words)” value ([1]; 1×10^-2 M, 3×10^-3 M, 1×10^-3 M) was “considerable inhibition”, the “Inhibition of P. carinii (in words)” value ([1]; 1×10^-4 M) was “some inhibition” and the “Inhibition of DHPS in P. carinii (in words)” value [2] was “inhibition”. For the same compound, the “Percent DHPS Inhibition” value ([2]; 1 × 10^-3 M) was 16.6% and 22.2%, the inhibition at 1000 µM ([2]; 1 × 10^-3 M) was 14.3% and the “Percent DHPS Inhibition” value ([2]; 1 × 10^-4 M) was 37.9% and 52.6% and 62.1%. The “Percent DHPS Inhibition” value ([2]; 1 × 10^-5 M) was 70.2% and 100% and 92.2%, the “Inhibition of DHPS activity in Toxoplasma gondii (in words)” value [3] was “inhibited” and the inhibition at 1000 µM ([3]; T. gondii, 1 × 10^-3 M, single runs, read-out: Percent DHPS Inhibition) was 5.1%. For the same compound, the inhibition at 100 µM [3, 6] was 21.4%, the inhibition at 10 µM [3, 7] was 68.4% and the inhibition at 1 µM ([3]; T. gondii, 1 × 10^-6 M, single runs, read-out: Percent DHPS Inhibition) was 83.4%.

For Isoprinosine [reference compound], the “Results: % of Control (total radiolabel incorporated into reduced folates)” value [1, 10] was 100 % of Control, the “Inhibition of P. carinii (in words)” value ([1]; no concentration stated) was “has inhibition” and the “Percent DHPS Inhibition” value ([2]; 1 × 10^-3 M) was 35.6%. The “Percent DHPS Inhibition” value ([2]; 1 × 10^-4 M) was 87.4%, the “Percent DHPS Inhibition” value ([2]; 1 × 10^-5 M) was 100% and the “Percent DHPS Inhibition” value ([3]; T. gondii, 1 × 10^-3 M, single runs) was 7.8%. The “Percent DHPS Inhibition” value ([3]; T. gondii, 1 × 10^-4 M, single runs) was 28.3%, the “Percent DHPS Inhibition” value ([3]; T. gondii, 1 × 10^-5 M, single runs) was 76.5% and the “Percent DHPS Inhibition” value ([3]; T. gondii, 1 × 10^-6 M, single runs) was 100%.
